Some test systems named below: HT29 colon; MDA-MB-435; K-562 leukemia; MDA-MB-231 breast; U251 CNS; SF-295 CNS; HCT-15 colon; PC-3 prostate; MOLT-4 leukemia; DU-145 prostate; SK-MEL-28 melanoma; IGROV1 ovarian; OVCAR-5 ovarian; EKVX NSCLC; UACC-62 melanoma; RPMI-8226 leukemia; UACC-257 melanoma; SNB-19 CNS; HCC-2998 colon; CAKI-1 renal.
Assay in all cases: NCI-60 cell line screen, 48 h

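All cell lines were grown in 96-well plates and treated with compound for 48 hours. At the TGI there is no net growth.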

As for `O=C(c1ccco1)C1CC(c2c(O)ccc3ccccc23)=NN1` (stereo not given), the TGI in the assay with HT29 colon is 24 µM; in the assay on MDA-MB-435 it was 22.4 µM; in the assay with K-562 leukemia, more than 100 µM; with MDA-MB-231 breast, 37.3 µM; in the assay with U251 CNS it was 34.1 µM; with SF-295 CNS, 23.3 µM. Moreover, the TGI was more than 100 µM with HCT-15 colon; 21.1 µM in the assay with PC-3 prostate; 42.7 µM with MOLT-4 leukemia; 30.8 µM in the assay with DU-145 prostate; 47.8 µM in the assay on SK-MEL-28 melanoma; 42 µM in the assay with IGROV1 ovarian. The TGI came to 36.3 µM in the assay on OVCAR-5 ovarian; 32.4 µM in the assay with EKVX NSCLC; 26 µM in the assay with UACC-62 melanoma; 86.6 µM with RPMI-8226 leukemia; 57.9 µM in the assay on UACC-257 melanoma; 47.8 µM in the assay on SNB-19 CNS. In addition, the TGI came to 25.7 µM in the assay with HCC-2998 colon and 38.8 µM with CAKI-1 renal.

For the origin of these results see PubChem BioAssay (NCI).
